Reference: US20020114734A1, “Microplate thermal shift assay apparatus for ligand development and multi-variable protein chemistry optimization” (priority 1996, published 2002)
Read-outs that look alike come from different tables or passages of the source.

Assays:
[1] = biological target: T1, heparin binding site of human α-thrombin (Homo sapiens, UniProt P00734); test: Microplate thermal shift assay, ligands binding to the heparin binding site, turbidity as signal
T1 construct: A stock human α-thrombin solution; purchased Enzyme Research Labs
Description: Assays for ligands that bind to the heparin binding site of human α-thrombin are more difficult to perform than assays for ligands that bind to the active site of human α-thrombin. At the heparin binding site, no substrate is hydrolyzed, so no spectrophotometric signal can be amplified for instrumental detection. Heparin activity is usually estimated in biological clotting time assays. […] Thus, heparin binding to human α-thrombin represents the kind of challenge encountered with the vast majority of non-enzyme receptor/ligand binding events, which are commonly observed for hormone/receptor interactions, repressor/DNA interactions, neurotransmitter/receptor interactions, etc. Several heparin-like sulfated oligosaccharides and sulfated naphthalene compounds were assayed by the microplate thermal shift assay. Using the thermal shift assay, it was possible to use a single compound per well to quickly rank the compounds in order of increasing binding affinity, with Kd's ranging over three orders of magnitude (see Table 4). Like the experiment in Example 1, the thermal shift assay results agreed closely with the results obtained through an alternative method, which required a series of laborious (15 to 20 single determinations) fluorescence quench assays over a wide range of concentrations of low MW heparin (Olson, S. T. et al., J. Biol. Chem. 266:6342-6352 (1991)).

[2] = test system: D(II) domain of human FGF receptor 1; test: Microplate thermal shift assay for ligands binding to D(II) FGFR1, fluorescence emission as signal
Description: The microplate thermal-shift assay was employed to test the binding of heparin 5000 and pentosan PSO4 to the known heparin binding site in the D(II) domain of fibroblast growth factor receptor 1 (FGFR1). D(II) FGFR1 is a 124 residue domain which is responsible for most of the free energy of binding for bFGF. D(II) FGFR1 was cloned and expressed in E. coli. Recombinant D(II) FGFR1 was renatured from inclusion bodies essentially as described (Wetmore, D. R. et al., Proc. Soc. Mtg., San Diego, Calif. (1994)), except that a hexa-histidine tag was included at the N-terminus to facilitate recovery by affinity chromatography on a Ni^2+ chelate column (Janknecht, R. et al., Natl. Acad. Sci. USA 88:8972-8976 (1991)). D(II) FGFR1 was further purified on a heparin-sepharose column (Kan, M. et al., Science 259:1918-1921 (1993); Pantoliano, M. W. et al., Biochemistry 33:10229-10248 (1994)). Purity was >95%, as judged by SDS-PAGE. The D(II) FGFR1 protein was concentrated to 12 mg/mL (˜1 mM) and stored at 4° C.
The D(II) FGFR1 protein was dissolved in an ANS solution to a concentration of […] (70 μM). The quantum yield for ANS bound to the denatured form of D(II) FGFR1 was lower than the quantum yield for ANS bound to human α-thrombin. Because ANS fluorescence is very environment dependent (see Lakowicz, I. R. Principles of Fluorescence Spectroscopy, Plenum Press, New York (1983)), the quantum yield observed for the denaturation of different proteins will vary. For D(II) FGFR1, the signal for the turbidity version of the assay, however, was nearly undetectable. Despite the decreased sensitivity for D(II) FGFR1, ANS rescued this system for the microplate assay. A similar-result was obtained for Factor Xa, except that the fluorescence quantum yield for ANS bound to denatured Factor Xa was almost as good as it was for human α-thrombin.

bFGF = bFGF (Homo sapiens, UniProt P09038); details: binding to bFGF by isothermal titrating calorimetry; read-out: Ki (298° K) Literature; cited from earlier work
[3] = many effects described as coagulation anomalies; cited from earlier work
[4] = biological target: T2, acidic fibroblast growth factor (aFGF) (Homo sapiens, UniProt P05230); test: Microplate thermal shift assay for ligands binding to aFGF, turbidity as signal
T2 construct: host or cells: E. coli
Description: The second therapeutic receptor tested in the microplate thermal shift assay was acidic fibroblast growth factor (aFGF), a growth factor that plays a key role in angiogenesis (Folkman, J. et al., J. Biol. Chem. 267:10931-10934 (1992)). A synthetic gene for this protein was purchased from R&D Systems (Minneapolis, Minn.), and was cloned and expressed in E. coli using methods similar to those described for basic fibroblast growth factor (bFGF) (Thompson, L. D. et al., Biochemistry 33:3831-3840 (1994); Pantoliano, M. W. et al., Biochemistry 33:10229-10248 (1994); Springer, B. A. et al., J. Biol. Chem. 269:26879-26884 (1994)). Recombinant aFGF was then purified by heparin-sepharose affinity chromatography as described (Thompson, L. D. et al., Biochemistry 33:3831-3840 (1994)). aFGF is also known to bind heparin/heparan, which is a cofactor for mitogenic activity. […] A microplate thermal assay of these compounds was set up in a way similar to that described above for human α-thrombin. […] The affinity constants covered a fairly broad range of binding affinities, with pentosan PSO4 showing the highest affinity.

[5] = literature; cited from earlier work
[6] = biological target: T3, heparin binding site of basic fibroblast growth factor (bFGF) (Homo sapiens, UniProt P09038); test: Microplate thermal shift assay for ligands binding to bFGF; details: read-out: binding affinity
T3 construct: host or cells: E. coli
Description: The microplate thermal shift assay was used to assess ligands for binding to the heparin binding site of basic fibroblast growth factor (bFGF). The gene for bFGF was purchased from R&D Systems and was cloned and expressed in E. coli as previously described (Thompson, L. D. et al., Biochemistry 33:3831-3840 (1994); Pantoliano, M. W. et al., Biochemistry 33:10229-10248 (1994); Springer, B. A. et al., J. Biol. Chem. 269:26879-26884 (1994)).

D(II)-D(III) FGFR1 = details: titrating calorimetry, read-out: Kd (298° K) Literature; cited from earlier work
[7] = equation (1), estimated ΔHu 60.0 kcal/mole, ΔCpu 0.95 kcal/mole-°K, read-out: Kd at Tm

Sequence of D(II) domain of human FGF receptor 1 (P11362 158-246 limits assumed): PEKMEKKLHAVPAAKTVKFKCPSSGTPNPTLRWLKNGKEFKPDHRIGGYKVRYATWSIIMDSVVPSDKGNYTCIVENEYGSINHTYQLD
T2 sequence (P05230 whole entry, species assumed): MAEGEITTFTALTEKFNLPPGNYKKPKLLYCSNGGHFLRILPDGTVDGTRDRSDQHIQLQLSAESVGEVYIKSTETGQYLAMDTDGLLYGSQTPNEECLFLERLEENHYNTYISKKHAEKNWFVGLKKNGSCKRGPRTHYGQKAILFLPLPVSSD
Sequence of D(II)-D(III) FGFR1 (P11362 150-254 limits assumed): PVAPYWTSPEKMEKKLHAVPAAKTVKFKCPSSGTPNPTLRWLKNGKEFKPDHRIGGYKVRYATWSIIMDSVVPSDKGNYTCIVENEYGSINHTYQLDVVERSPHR
Sequence of bFGF (P09038 134-288, species assumed): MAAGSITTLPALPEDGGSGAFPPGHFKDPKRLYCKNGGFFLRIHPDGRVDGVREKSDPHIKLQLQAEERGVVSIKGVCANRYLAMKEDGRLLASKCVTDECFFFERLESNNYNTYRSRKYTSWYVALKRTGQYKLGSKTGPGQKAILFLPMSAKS
T3 sequence (P09038 134-288, species assumed): as above

- Kd ([1]; calculated with equation (1), read-out: Kd at Tm): 2420 nM
- Kd ([1]; estimated with equation (3), ΔHL estimated −10.0 kcal/mole, read-out: Kd at 298° K Observed): 427 nM
- affinity at Tm, fold higher than the affinity of heparin 5000 ([1]; thermal shift assay, at Tm): 7 fold
- Tm ([1]; thrombin/ligand complex, 11 μM thrombin, ligand 40-102 μM, turbidity): 332.15 ° K
- Tm ([2]; D(II) FGFR1 70 μM, 136 μM ANS, ligand 150-156 μM): 319.4 ° K
- Kd [2, 7]: 19100 nM
- Kd ([2]; equation (3), ΔHL −12.1 (pentosan PSO4) and −7.48 kcal/mole (heparin 5000), read-out: Kd at 298° K Observed): 4900 nM
- Tm ([4]; aFGF/ligand, aFGF 0.25 mg/mL, ligand 47-200 μM, turbidity): 336.15 ° K
- Kd [4, 7]: 208 nM
- Kd ([4]; equation (3), ΔHL estimated −10.0 kcal/mole, read-out: Kd at 298° K Observed): 31 nM
- Kd [6]: 55 nM
Substance: pentosan polysulfate [Pentosan PSO4]
- Ki (bFGF): 88 nM
- outcome of clinical trials [3]: discounted due to toxic effects
- anticoagulant properties [5]: anticoagulant properties
- Kd (D(II)-D(III) FGFR1): 10900 nM
